Reference: PubChem BioAssay (NCI)
Values joined by “and” are separate entries in the source; they are usually repeats but may differ in a detail not shown here. Equal values may be shown once.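 How tested: cells in 96-well plates exposed to compound for 48 hours at five concentrations. Abbreviation: GI50, concentration required for 50% inhibition of growth. TGI marks complete inhibition of growth.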

Key:
Assay in all cases: DTP human tumour cell line panel, 48 h
M14 melanoma = tested on: M14 melanoma
HT29 colon = tested on: HT29 colon
UACC-257 melanoma = tested on: UACC-257 melanoma
OVCAR-5 ovarian = tested on: OVCAR-5 ovarian
OVCAR-8 ovarian = tested on: OVCAR-8 ovarian
SF-539 CNS = tested on: SF-539 CNS
MDA-N = tested on: MDA-N
SNB-75 CNS = tested on: SNB-75 CNS
HOP-92 NSCLC = tested on: HOP-92 NSCLC
SK-MEL-28 melanoma = tested on: SK-MEL-28 melanoma
SNB-19 CNS = tested on: SNB-19 CNS
OVCAR-3 ovarian = tested on: OVCAR-3 ovarian
OVCAR-4 ovarian = tested on: OVCAR-4 ovarian
CCRF-CEM leukemia = tested on: CCRF-CEM leukemia
NCI-H522 lung = tested on: NCI-H522 lung
MOLT-4 leukemia = tested on: MOLT-4 leukemia
SW-620 colon = tested on: SW-620 colon
A549 NSCLC = tested on: A549 NSCLC
HCT-116 colon = tested on: HCT-116 colon
SK-MEL-2 melanoma = tested on: SK-MEL-2 melanoma
SK-MEL-5 melanoma = tested on: SK-MEL-5 melanoma
UACC-62 melanoma = tested on: UACC-62 melanoma
786-0 renal = tested on: 786-0 renal
HS 578T breast = tested on: HS 578T breast
RPMI-8226 leukemia = tested on: RPMI-8226 leukemia
A498 renal = tested on: A498 renal
DU-145 prostate = tested on: DU-145 prostate
RXF 393 renal = tested on: RXF 393 renal
ACHN renal = tested on: ACHN renal
COLO 205 colon = tested on: COLO 205 colon
T-47D breast = tested on: T-47D breast
MDA-MB-231 breast = tested on: MDA-MB-231 breast
TK-10 renal = tested on: TK-10 renal
NCI-H23 lung = tested on: NCI-H23 lung
MALME-3M melanoma = tested on: MALME-3M melanoma
IGROV1 ovarian = tested on: IGROV1 ovarian
SK-OV-3 ovarian = tested on: SK-OV-3 ovarian
SF-295 CNS = tested on: SF-295 CNS
SN12C renal = tested on: SN12C renal
NCI-H226 lung = tested on: NCI-H226 lung
CAKI-1 renal = tested on: CAKI-1 renal
K-562 leukemia = tested on: K-562 leukemia
HCT-15 colon = tested on: HCT-15 colon
NCI-H460 lung = tested on: NCI-H460 lung
MDA-MB-435 = tested on: MDA-MB-435
PC-3 prostate = tested on: PC-3 prostate
SF-268 CNS = tested on: SF-268 CNS
BT-549 breast = tested on: BT-549 breast
NCI/ADR-RES ovarian = tested on: NCI/ADR-RES ovarian
EKVX NSCLC = tested on: EKVX NSCLC
HCC-2998 colon = tested on: HCC-2998 colon
KM12 colon = tested on: KM12 colon
HOP-62 NSCLC = tested on: HOP-62 NSCLC
HL-60(TB) leukemia = tested on: HL-60(TB) leukemia
MCF7 breast = tested on: MCF7 breast
LOX IMVI melanoma = tested on: LOX IMVI melanoma
SR leukemia = tested on: SR leukemia
U251 CNS = tested on: U251 CNS
UO-31 renal = tested on: UO-31 renal

`CC(=O)c1c(-c2ccc(Cl)cc2)c(C#N)c(=S)n(C2OC(CO)C(O)C(O)C2O)c1-c1ccccc1` (configuration not stated) gave a TGI (M14 melanoma) of over 100 µM, a TGI (HT29 colon) of over 100 µM and a TGI (UACC-257 melanoma) of over 100 µM. For the same compound, the GI50 (OVCAR-5 ovarian) was over 100 µM, the TGI (OVCAR-5 ovarian) was over 100 µM and the TGI (OVCAR-8 ovarian) was over 100 µM. The GI50 (SF-539 CNS) was over 100 µM, the TGI (SF-539 CNS) was over 100 µM and the TGI (MDA-N) was over 100 µM. The TGI (SNB-75 CNS) was over 100 µM, the TGI (HOP-92 NSCLC) was > 100 µM and 74.1 µM and the TGI (SK-MEL-28 melanoma) was over 100 µM. For the same compound, the GI50 (SNB-19 CNS) was 34.8 µM and > 100 µM, the TGI (SNB-19 CNS) was over 100 µM and the TGI (OVCAR-3 ovarian) was over 100 µM. The GI50 (OVCAR-4 ovarian) was > 86.4 µM and 14.7 µM, the TGI (OVCAR-4 ovarian) was over 100 µM and the GI50 (CCRF-CEM leukemia) was 13.1 µM and 55.4 µM. For the same compound, the TGI (CCRF-CEM leukemia) was 99.5 µM and > 100 µM, the TGI (NCI-H522 lung) was over 100 µM and the TGI (MOLT-4 leukemia) was 29.2 µM and > 100 µM. The TGI (SW-620 colon) was over 100 µM, the GI50 (A549 NSCLC) was 46.7 µM and > 100 µM and the TGI (A549 NSCLC) was over 100 µM. For the same compound, the GI50 (HCT-116 colon) was 17.4 µM and > 100 µM, the TGI (HCT-116 colon) was over 100 µM and the GI50 (SK-MEL-2 melanoma) was > 84.5 µM and 35 µM. The TGI (SK-MEL-2 melanoma) was over 100 µM, the GI50 (SK-MEL-5 melanoma) was 31.8 µM and > 100 µM and the TGI (SK-MEL-5 melanoma) was over 100 µM. The GI50 (UACC-62 melanoma) was 4.85 µM and 21.9 µM, the TGI (UACC-62 melanoma) was over 100 µM and the GI50 (786-0 renal) was 48.8 µM and > 100 µM. For the same compound, the TGI (786-0 renal) was over 100 µM, the TGI (HS 578T breast) was over 100 µM and the TGI (RPMI-8226 leukemia) was over 100 µM. The GI50 (A498 renal) was > 100 µM and 49.7 µM, the TGI (A498 renal) was over 100 µM and the TGI (DU-145 prostate) was over 100 µM. For the same compound, the TGI (RXF 393 renal) was over 100 µM, the TGI (ACHN renal) was over 100 µM and the GI50 (COLO 205 colon) was 47.3 µM and > 100 µM. The TGI (COLO 205 colon) was over 100 µM, the TGI (T-47D breast) was over 100 µM and the GI50 (MDA-MB-231 breast) was > 22.6 µM and 76.3 µM. It also gave a TGI (MDA-MB-231 breast) of over 100 µM, a TGI (TK-10 renal) of over 100 µM and a TGI (NCI-H23 lung) of over 100 µM. For the same compound, the TGI (MALME-3M melanoma) was over 100 µM, the TGI (IGROV1 ovarian) was over 100 µM and the TGI (SK-OV-3 ovarian) was over 100 µM. The TGI (SF-295 CNS) was over 100 µM, the TGI (SN12C renal) was over 100 µM and the TGI (NCI-H226 lung) was over 100 µM. The TGI (CAKI-1 renal) was over 100 µM, the GI50 (K-562 leukemia) was 26 µM and > 100 µM and the TGI (K-562 leukemia) was over 100 µM. It also gave a TGI (HCT-15 colon) of over 100 µM, a TGI (NCI-H460 lung) of over 100 µM and a TGI (MDA-MB-435) of over 100 µM. For the same compound, the GI50 (PC-3 prostate) was 7.97 µM and 58.6 µM, the TGI (PC-3 prostate) was over 100 µM and the TGI (SF-268 CNS) was over 100 µM. For the same compound, the TGI (BT-549 breast) was over 100 µM, the TGI (NCI/ADR-RES ovarian) was over 100 µM and the GI50 (EKVX NSCLC) was 99.7 µM and 22.2 µM. The TGI (EKVX NSCLC) was over 100 µM, the TGI (HCC-2998 colon) was over 100 µM and the TGI (KM12 colon) was over 100 µM. For the same compound, the GI50 (HOP-62 NSCLC) was 39.8 µM and > 100 µM, the TGI (HOP-62 NSCLC) was over 100 µM and the GI50 (HL-60(TB) leukemia) was 30.9 µM and 62.2 µM. For the same compound, the TGI (HL-60(TB) leukemia) was over 100 µM, the TGI (MCF7 breast) was over 100 µM and the GI50 (LOX IMVI melanoma) was 15.9 µM and > 100 µM. For the same compound, the TGI (LOX IMVI melanoma) was over 100 µM, the TGI (SR leukemia) was 61.8 µM and > 100 µM and the GI50 (U251 CNS) was 42.8 µM and > 100 µM. The TGI (U251 CNS) was over 100 µM.
`CC(C)NC(=O)OCc1c(COC(=O)NC(C)C)n(C)c2c1ccc1ccsc12` showed a TGI (M14 melanoma) of 22.5 µM, a TGI (HT29 colon) of 38.5 µM and a TGI (UACC-257 melanoma) of 31.7 µM. The TGI (OVCAR-5 ovarian) was 54.1 µM, the TGI (OVCAR-8 ovarian) was 40.5 µM and the TGI (MDA-N) was 26.1 µM. It also gave a TGI (SNB-75 CNS) of 26.9 µM, a TGI (HOP-92 NSCLC) of 45.4 µM and a TGI (SK-MEL-28 melanoma) of 30 µM. For the same compound, the TGI (SNB-19 CNS) was 52.2 µM, the TGI (OVCAR-3 ovarian) was 40 µM and the TGI (OVCAR-4 ovarian) was 23.7 µM. For the same compound, the TGI (CCRF-CEM leukemia) was 7.31 µM, the TGI (NCI-H522 lung) was 21.5 µM and the TGI (MOLT-4 leukemia) was 12.4 µM. The TGI (SW-620 colon) was over 45 µM, the TGI (A549 NSCLC) was 47.4 µM and the TGI (HCT-116 colon) was 31.8 µM. It also gave a TGI (SK-MEL-2 melanoma) of 31.8 µM, a TGI (SK-MEL-5 melanoma) of 22.7 µM and a TGI (UACC-62 melanoma) of 22.9 µM. The TGI (786-0 renal) was 23.4 µM, the TGI (HS 578T breast) was 48.5 µM and the TGI (RPMI-8226 leukemia) was 20.3 µM. The TGI (A498 renal) was 35.3 µM, the TGI (DU-145 prostate) was 27.4 µM and the TGI (RXF 393 renal) was 21.1 µM. It also gave a TGI (ACHN renal) of 14.2 µM, a TGI (COLO 205 colon) of 26 µM and a TGI (T-47D breast) of over 100 µM. The TGI (UO-31 renal) was 26.6 µM, the TGI (MDA-MB-231 breast) was 38.4 µM and the TGI (TK-10 renal) was over 94.4 µM. It also gave a TGI (NCI-H23 lung) of 21.8 µM, a TGI (MALME-3M melanoma) of 18.3 µM and a TGI (IGROV1 ovarian) of 53.3 µM. For the same compound, the TGI (SK-OV-3 ovarian) was 69.6 µM, the TGI (SF-295 CNS) was over 81.4 µM and the TGI (SN12C renal) was 35.2 µM. For the same compound, the TGI (NCI-H226 lung) was 28.7 µM, the TGI (CAKI-1 renal) was 13.9 µM and the TGI (K-562 leukemia) was 54.8 µM. It also gave a TGI (HCT-15 colon) of 28.1 µM, a TGI (NCI-H460 lung) of 21.2 µM and a TGI (MDA-MB-435) of 25.3 µM. For the same compound, the TGI (PC-3 prostate) was 39.9 µM, the TGI (SF-268 CNS) was 25.4 µM and the TGI (BT-549 breast) was 28.4 µM. It also gave a TGI (NCI/ADR-RES ovarian) of 31.4 µM, a TGI (EKVX NSCLC) of 48.1 µM and a TGI (HCC-2998 colon) of 28.6 µM. For the same compound, the TGI (KM12 colon) was 38.3 µM, the TGI (HOP-62 NSCLC) was 55.9 µM and the TGI (HL-60(TB) leukemia) was 9.93 µM. It also gave a TGI (MCF7 breast) of over 53.1 µM, a TGI (LOX IMVI melanoma) of 30 µM and a TGI (SR leukemia) of 8.45 µM. The TGI (U251 CNS) was 35.8 µM.
